From patent US20230355625A1, “METHODS OF TREATMENT” (INTRA-CELLULAR THERAPIES, INC., priority 2019, published 2023)

Legend:
[1] = test system: healthy human individuals; test: BOLD-fMRI during the extinction phase of a fear conditioning task; assay type: in vivo; conditions: single oral doses of 1 mg or 10 mg vs placebo; FIG. 1
Procedure: A randomized, double-blind, placebo-controlled, within-subjects study was carried out with healthy human individuals to determine whether the PDE1 inhibitors according to the present disclosure induce changes in blood oxygen level dependent functional magnetic resonance imaging (BOLD-fMRI) signals in the dorsal anterior insula (dAI) during the extinction phase of a fear conditioning task. To test these effects, Compound 1 was administered to healthy human patients. Compound 1 (ITI-214) is shown below:
The insula is a small brain region that is essential for the mind-body connection, where body sensations are translated into emotion. Anterior insula reactivity has been associated with anticipating significant events, and increased anterior insula activity has been associated with anxiety. Conditioning, including fear conditioning and extinction, is a brain activity during learning. […]
Patients were administered single oral doses of placebo, or doses of Compound 1 at 1 mg or 10 mg. Brain activity was then measured during BOLD-fMRI scanning at 3 Tesla. […] Region-of-interest (ROI) analyses for the dAI, IFG, and other prespecified regions were computed using linear mixed models in R. The brain's response is measured in each subject by fMRI scans, which is summarized in FIG. 1.

[2] = test system: healthy human individuals; test: BOLD-fMRI during a stop signal task; assay type: in vivo
Procedure: The Stop Signal task is a way to measure behavioral and neural responses to inhibitory processing.
Patients were again administered single oral doses of placebo, Compound 1 at 1 mg or 10 mg. Brain activity was then measured during BOLD-fMRI scanning at 3 Tesla. In this study, participants are presented with a visual and/or audio cue and two buttons. The subjects are instructed to press the left button as quickly as possible when an ‘X’ appears on a screen and the right button when an ‘O’ appears. Participants also are instructed not to press either button when they hear a tone, which constitute the Stop trials. There are two different kinds of Stop trials presented during the task, namely easy and hard trials. Easy trials consist of the tone cue being presented simulataneously with the visual ‘X’ or ‘O’ making it easier to suppress a response. Hard trials consist of the tone being presented after a brief delay, making it harder to process the tone and suppress a response.
This consistency provides confidence in the findings.

[3] = test system: preclinical models; test: preclinical models of cognitive performance; assay type: in vivo
[4] = test system: animal models; conditions: cited from earlier work
[5] = test system: healthy humans; conditions: cited from earlier work; for fear extinction learning: humans
[6] = in vivo; cited from earlier work

| SMILES | insula activity (dorsal anterior insula BOLD-fMRI signal) during fear extinction [1] | activity in the dorsolateral prefrontal cortex during stop signal task ([2]; FIG. 3) | activity in the dorsal anterior cingulate cortex during stop signal task ([2]; FIG. 4) | activity in the anterior insula during stop signal task ([2]; FIG. 5) | activation in the frontal gyrus ([2]; human, 1 mg where stated) | activation in the inferior frontal gyrus during correctly inhibited Stop trials, easy trials (correcteasy) ([2]; single oral dose 1 mg, FIG. 2) | activation in the inferior frontal gyrus during correctly inhibited Stop trials, hard trials (correcthard) ([2]; single oral dose 1 mg, FIG. 2) | cognitive performance [3] | psychomotor hyperactivity [3] | extinction of contextual fear (cognitive function) [4] | effect on the bilateral anterior insula during a fear extinction task ([5]; healthy humans) | fear extinction learning [5] | activation in the frontal gyrus during a stop signal task [6] | inhibitory performance during a stop signal task [6] |
| --- | --- | --- | --- | --- | --- | --- | --- | --- | --- | --- | --- | --- | --- | --- |
| CN1C(=O)c2c(nn(Cc3ccc(-c4cccc(F)n4)cc3)c2Nc2ccccc2)N2C1=N[C@@H]1CCC[C@@H]12 [Compound 1] | slightly attenuated | increased activity | increased activity | increased activity | increased activation | significantly increased activation | significantly increased activation | improved cognitive performance | without psychomotor hyperactivity | – | – | – | – | – |
| COC(=O)C(c1ccccc1)C1CCCCN1 (stereo not drawn) [methylphenidate] | – | – | – | – | – | – | – | – | – | enhanced extinction of contextual fear | attenuating effect | enhancement of fear extinction learning | increase activation | improve inhibitory performance |
| NC(=O)C[S+]([O-])C(c1ccccc1)c1ccccc1 (stereo not drawn) [modafinil] | – | – | – | – | – | – | – | – | – | enhanced extinction of contextual fear | – | enhancement of fear extinction learning | increase activation | improve inhibitory performance |
